Measured values: patent US10227324B2 (Shanghai Haiyan Pharmaceutical Technology Co., Ltd., priority 2014, dated 2019)
Where two headings read alike, the source gives them in different places.

Tests used:
T47D cells = assay: Cell inhibitory activity detected by MTT assay, T47D; type: cell-based; details: Homo sapiens, T47D, 72 h, read-out: T47D cell (IC50/nM), cell growth inhibition
[1] = system: Akt phosphorylation (Ser473-p-Akt) in PC-3 cells; assay: Inhibition of p-Akt phosphorylation level in PC-3 cells (cell level fluorescence imaging); type: cell-based; details: Homo sapiens, read-out: PC-3 cell (IC50/nM)
Description: This experiment was performed by cell level fluorescence image processing method.
Triton X-100: 10% aqueous Triton X-100 solution (Sigma T8787-100 mL) was prepared, stored at 4° C. and diluted by 1:100 to give 0.1% Triton X-100 aqueous solution for use in the experiment.
Prodium Iodide (PI): 1 mg/mL (1.5 mM) PI (Sigma P4170) storage solution was prepared with PBS and stored at −25° C. in the dark. For use, the PI storage solution was diluted with PBS by 1:1000 to give a 1.5 μM solution and used in dark.
PC-3 cells in logarithmic growth phase were digested with 0.25% EDTA trypsin. 3000 cells/90 μL were seeded in a 96-well plate (BD 356692) and cultured at 37° C. and 5% CO2. After the cells adhered, 10 μL of the compound to be tested which was gradiently diluted 3 times (0.0046 to 10 μM, 8 concentration points, in duplicate) was added and incubated for 2 hours, followed by addition of 100 μL of 4% paraformaldehyde (DINGGUO AR-0211) and incubated at room temperature for 45 minutes. Then 100 μL of 0.1% Triton X-100 solution was added and incubated for another 30 minutes.
Triton X-100 solution was removed and the cells were rinsed with 200 μl of PBS twice (300 rpm vibration for 1 minute). The blocking solution (1% BSA solution in PBS) (Genview FA016-100G) was added and incubated at room temperature for 2 hours. The plate was rinsed with PBS once (300 rpm, 1 min) and 30 μL of Ser473-p-Akt antibody (cell signaling 4060L) diluted with 0.1% BSA was added and incubated overnight at 4° C. Ser473-p-Akt antibody was removed and the plate was rinsed with PBS twice (300 rpm, 1 minute). 35 μL of Alexa Flour 488 donkey anti-rabbit IgG (Invitrogen A21206) was added and incubated at room temperature for 1.5 hours. The plate was rinsed with PBS twice (300 rpm, 1 minute) and 35 μL of 1.5 μM PI was added and incubated at room temperature for 0.5 h. The fluorescence intensity was measured with Acumen eX3 (TTP LabTech).
10 μM BEZ235 (Selleck S1009) treatment group was negative control and DMSO treatment group was positive control. Inhibition ratio %=[1−(the mean value of the fluorescence intensity of the compound to be tested−the mean value of the fluorescence intensity of the negative control group)/(the mean value of the fluorescence intensity of the positive control group−the mean value of the fluorescence intensity of the negative control group)]×100%

[2] = Metabolism stability assay in liver microsomes; type: in vitro ADME, mouse; details: liver microsomal metabolism in mice
Description: Buffer A: 1 L solution of 100 mM potassium dihydrogen phosphate containing 1 mM EDTA (Sigma, V900157-100G) was prepared. Buffer B: 1 L solution of 100 mM dipotassium hydrogen phosphate containing 1 mM EDTA was prepared. Buffer C: 700 mL of buffer B was taken out and titrated with buffer A to pH 7.4.
2.1 10 μl of 10 mM compound to be tested and 10 μl of 10 mM ketanserin were taken out and 190 μl of pure acetonitrile was added to each of them to prepare 500 μM compound to be tested and ketanserin, respectively.
2.2 20 μl (20 mg/mL) of liver microsomes (XENOTECH, H0610) stock solution was added to 513.4 μl of buffer C on wet ice. 0.75 mg/mL liver microsomal solution was obtained.
2.3 1.5 μl of each of the above-mentioned compound to be tested and ketanserin solution was added to 498.5 μl of liver microsomal solution (0.7 5 mg/mL) respectively on wet ice. 1.5 μM mixed solution of compound to be tested and 1.5 μM mixed solution of ketanserin were obtained.
2.4 At the time points 0, 5, 15, 30, 45, and 60 min, 30 μl of the mixed solution of compound to be tested and 30 μl of the mixed solution of ketanserin were dispensed into the reaction plate on wet ice, respectively.
2.5 5 mg reduced coenzyme II (Roche, 10621706001) was weighed and dissolved in 1 mL of buffer C. 6 mM reduced coenzyme II solution was obtained. The reduced coenzyme II solution was dispensed into the reaction plate.
2.6 Imipramine was dissolved to give a 10 mM solution. 10 μl imipramine solution was added to 100 mL of blank acetonitrile to generate the internal reference.
2.7 At 0 min, 135 μL of iced acetonitrile (Merck, UN 1648) containing the internal reference was added to each well and then 15 μL of buffer C was added.
2.8 The reaction plate was placed into a 37° C. water bath incubator for 5 min. In the reaction plate, 15 μL of reduced coenzyme II solution was added to each well to initiate the reaction, and the time keeping was started. At the time points of 5, 15, 30, 45, and 60 min, 135 μL of iced acetonitrile containing the internal reference was added to each well to terminate the reaction.
2.9 The reaction plate was sealed with an aluminum film, placed on a vibration mixer and shaken at 500 rpm for 5 min. The plate was then centrifuged in a centrifuge at 3750 rp for 15 min.
2.10 The sample was diluted with pure water in accordance with the ratio of 1:1 and detected by LC/MS.
Half-life: 0.693/K (the slope by plotting based on the incubation time and logarithm of the concentration value)
Clearance ratio: (0.693/half-life)*(1/protein concentration (0.5 mg/mL))*(proportional factor)
Wherein, the K value and the proportional factor were calculated by those skilled in the art according to the methods described in the prior art and contained in the instructions of the liver microsome product.

[3] = Akt phosphorylation in PC-3 cells, 2 hours incubation

Compound | IC50 (T47D cells) | IC50 [1, 3] | Clearance ratio (mL/min/kg) mouse [2] | IC50 ([1]; PC-3, 2 h)
C[C@H]1COCCN1c1nc(-c2cnc(N)cc2C(F)(F)F)cc(C2(S(C)(=O)=O)CCC2)n1 [Compound S-9] | 93 nM | 184 nM | – | –
C[C@H]1COCCN1c1nc(-c2ccc(N)nc2)cc(C2(S(C)(=O)=O)CCC2)n1 [Compound S-32] | 95 nM | 74 nM | – | –
Nc1cc(C(F)(F)F)c(-c2cc(C3(S(=O)(=O)c4ccccc4)CCC3)nc(N3CCOCC3)n2)cn1 [Compound S-20] | 332 nM | – | 5641.44 mL/min/kg | –
CS(=O)(=O)C1(c2cc(-c3cnc(N)cc3Cl)nc(N3CCOCC3)n2)CC1 [Compound S-37, 4-chloro-5-(6-(1-(methylsulfonyl)cyclopropyl)-2-morpholinopyrimidin-4-yl)pyridin-2-amine] | 202 nM | 198 nM | – | –
COC(C)(C)c1cc(-c2cnc(N)cc2C(F)(F)F)nc(N2CCOCC2)n1 [Compound S-71, 5-(6-(2-methoxypropan-2-yl)-2-morpholinopyrimidin-4-yl)-4-(trifluoromethyl) pyridin-2-amine] | 165 nM | – | – | 555 nM
CS(=O)(=O)C1(c2cc(-c3cnc(N)cc3C(F)(F)F)nc(N3CCOCC3)n2)CCC1 [Compound S-4] | 124 nM | 248 nM | 442.63 mL/min/kg | –
CCS(=O)(=O)C1(c2cc(-c3cnc(N)cc3C(F)(F)F)nc(N3CCOC[C@@H]3C)n2)CCC1 [Compound S-23] | 20 nM | 366 nM | – | –
C[C@H]1COCCN1c1nc(-c2cnc(N)cc2Cl)cc(C2(S(C)(=O)=O)CCC2)n1 [Compound S-31] | 73 nM | 126 nM | – | –
CS(=O)(=O)C1(c2cc(-c3cnc(N)nc3C(F)(F)F)nc(N3CCOCC3)n2)CC1 [Compound S-46] | 137 nM | 131 nM | 100.1 mL/min/kg | –
C[C@H]1COCCN1c1nc(-c2cnc(N)cc2C(F)(F)F)cc(C(C)(C)S(C)(=O)=O)n1 [Compound S-41] | 148 nM | 414 nM | – | –
CC(C)(c1cc(-c2cnc(N)cc2Cl)nc(N2CCOCC2)n1)S(C)(=O)=O [Compound S-38, 4-chloro-5-(6-(2-(methylsulfonyl)prop-2-yl)-2-morpholinopyrimidin-4-yl)pyridin-2-amine] | 244 nM | 332 nM | 103.77 mL/min/kg | –
C[C@H]1COCCN1c1nc(-c2cnc(N)nc2C(F)(F)F)cc(C2(S(C)(=O)=O)CCC2)n1 [Compound S-30] | 100 nM | 101 nM | – | –
CC(C)S(=O)(=O)C1(c2cc(-c3cnc(N)cc3C(F)(F)F)nc(N3CCOCC3)n2)CCC1 [Compound S-19] | 178 nM | 575 nM | – | –
CC(C)S(=O)(=O)C1(c2cc(-c3cnc(N)cc3C(F)(F)F)nc(N3CCOC[C@@H]3C)n2)CCC1 [Compound S-13, (S)-5-(6-(1-(isopropylsulfonyl)cyclobutyl)-2-(3-methylmorpholino)pyrimidin-4-yl)-4-(trifluoromethyl)pyridin-2-amine] | 244 nM | 463 nM | – | –
CC(C)S(=O)(=O)C1(c2cc(-c3cnc(N)cc3C(F)(F)F)nc(N3CCOCC3)n2)CC1 [Compound S-18] | 160 nM | 430 nM | – | –
CS(=O)(=O)C1(c2cc(-c3cnc(N)cc3C(F)(F)F)nc(N3CCOCC3)n2)CCCC1 [Compound S-10] | 218 nM | 384 nM | – | –
C[C@H]1COCCN1c1nc(-c2cnc(N)nc2)cc(C2(S(C)(=O)=O)CCC2)n1 [Compound S-33] | 120 nM | 109 nM | – | –

Second part, led by results:

IC50 (T47D cells) | IC50 [1, 3] | Clearance ratio (mL/min/kg) mouse [2] | Compound | IC50 ([1]; PC-3, 2 h)
147 nM | 253 nM | – | Nc1cc(Cl)c(-c2cc(C3(S(=O)(=O)c4ccccc4F)CC3)nc(N3CCOCC3)n2)cn1 [Compound S-66] | –
73 nM | 183 nM | – | C[C@@H]1COCCN1c1nc(-c2cnc(N)cc2Cl)cc(C2(S(C)(=O)=O)CC2)n1 [Compound S-68] | –
249 nM | 385 nM | – | COC(C)(C)c1cc(-c2cnc(N)cc2Cl)nc(N2CCOC[C@@H]2C)n1 [Compound S-75] | –
33 nM | 121 nM | – | C[C@H]1COCCN1c1nc(-c2cnc(N)cc2F)cc(C(C)(C)S(C)(=O)=O)n1 [Compound S-84] | –
62 nM | 369 nM | 39.75 mL/min/kg | CS(=O)(=O)C1(c2cc(-c3cnc(N)cc3F)nc(N3CCOCC3)n2)CC1 [Compound S-82] | –
30 nM | 196 nM | – | C[C@H]1COCCN1c1nc(-c2cnc(N)cc2F)cc(C2(S(C)(=O)=O)CC2)n1 [Compound S-83] | –
255 nM | 488 nM | – | CS(=O)(=O)C(F)(F)c1cc(-c2cnc(N)cc2Cl)nc(N2CCOCC2)n1 [Compound S-54, 4-chloro-5-(6-(difluoro(methylsulfonyl)methyl)-2-morpholinopyrimidin-4-yl)pyridin-2-amine] | –
854 nM | 1020 nM | – | CS(=O)(=O)C1(c2cc(N3CCOCC3)nc(-c3cnc(N)cc3C(F)(F)F)n2)CC1 [reference compound] | –
63 nM | 161 nM | – | CCS(=O)(=O)C1(c2cc(-c3cnc(N)cc3F)nc(N3CCOCC3)n2)CC1 [Compound S-85] | –
123 nM | 215 nM | – | CC(C)(c1cc(-c2cnc(N)cc2F)nc(N2CCOCC2)n1)S(C)(=O)=O [Compound S-81] | –
129 nM | 367 nM | – | Nc1cc(C(F)(F)F)c(-c2cc(C3(S(=O)(=O)c4ccccc4F)CC3)nc(N3CCOCC3)n2)cn1 [Compound S-58] | –
81 nM | 349 nM | – | Nc1cc(F)c(-c2cc(C3(S(=O)(=O)C4CC4)CC3)nc(N3CCOCC3)n2)cn1 [Compound S-88] | –
289 nM | 531 nM | – | COC(C)(C)c1cc(-c2cnc(N)cc2Cl)nc(N2CCOCC2)n1 [Compound S-76] | –
88 nM | 187 nM | – | C[C@@H]1COCCN1c1nc(-c2cnc(N)cc2Cl)cc(C(C)(C)S(C)(=O)=O)n1 [Compound S-67] | –
208 nM | 382 nM | – | CCS(=O)(=O)C1(c2cc(-c3cnc(N)cc3C(F)(F)F)nc(N3CCOCC3)n2)CCC1 [Compound S-49, 5-(6-(1-(ethylsulfonyl)cyclobutyl)-2-morpholinopyrimidin-4-yl)-4-(trifluoromethyl)pyridin-2-amine] | –
69 nM | 240 nM | – | CC(C)S(=O)(=O)C1(c2cc(-c3cnc(N)cc3F)nc(N3CCOCC3)n2)CC1 [Compound S-86] | –
